Test: Solubility observations
Type: physicochemical
Procedure: To a 100 mL round-bottomed flask with a magnetic stirrer was added (2) (5.90 g, 22.67 mmol), maltol (3.57 g, 28.34 mmol), and 30 mL of acidic 2-ethoxyethanol (49:1 ethoxyethanol/12M HCl). The reaction vessel was fitted with a water-cooled condenser and the mixture heated to reflux for 64 h. The resulting suspension was vacuum-filtered while hot and the solids washed with water (50 mL), followed by acetone (50 mL), to afford the crude product as a fine brown solid. […] HRMS-ESI (m/z): [M+H]^+ calculated for C19H17N2O6 369.1081. found 369.1084.
In a typical experiment, an aqueous stock solution of DABA-bis-HP-N3 was prepared consisting of 2.28 mM ligand and 24.5 mM NaOH. […] A stock solution of Fe(NO3)3.9H2O was prepared consisting of 10.80 mM Fe^3+ and 4 mM HCl (as stabilizer). To a glass vial was added 877 μL ligand stock solution, followed by 1 mL Milli-Q H2O, followed by 123 μL Fe(III) stock and the resulting orange-red mixture (2 mL) shaken for 10 minutes. The as-synthesized particles have a mean diameter ranging from 10-20 nm (DLS). Particles were purified by filtration through an Amicon Ultra 15 mL centrifugal filter with a nominal molecular weight cutoff (MWCO) of 100 kDa, washing with 3×3 mL portions of Milli-Q H2O, spinning at 5000 rcf for 10 minutes each. The particles were resuspended in 2 mL of H2O to give an approximate azide concentration of 1 mM. The particle solution was lyophilized and the resulting dark red powder characterized by FTIR (KBr), showing the characteristic azide stretch at 2093 cm^−1 is retained after the nanoparticle synthesis.

SMILES | solubility in hot DMSO and DMF (hot DMSO and DMF) | solubility in methanol (methanol) | solubility in water (water, as disodium salt)
Cc1c(O)c(=O)ccn1-c1cc(C(=O)O)cc(-n2ccc(=O)c(O)c2C)c1 [compound 3, Diaminobenzoic Acid Bis-Hydroxypyridinone] | soluble | sparingly soluble | –
Cc1c(O)c(=O)ccn1-c1cc(C(=O)NCCCCN=[N+]=[N-])cc(-n2ccc(=O)c(O)c2C)c1 [compound 4, Diaminobenzoic Acid Bis-HP Azide] | – | – | freely soluble

— US9617541B2, “Biocompatible infinite coordination polymer nanoparticle-nucleic acid conjugates for antisense gene regulation” (NORTHWESTERN UNIVERSITY, priority 2014, dated 2017)
